Assays:
[1] = system: human hepatocellular carcinoma cell lines (HepG2 cells); settings: compared to free curcumin; cited from earlier work
[2] = system: U266; settings: U266, in vitro; cited from earlier work
[3] = system: β-glucuronidase; settings: 10 μL of 2.81 μg/mL substrate, pH 5.0, 37° C., 1 hour, n=3
Experimental: In this regard, as a control, curcumin monoglucuronide was used for the examination.
In addition, as the curcumin diglucuronide, commercially available curcumin diglucuronide (manufactured by SynInnova Laboratories Inc.) was used.
Next, into the resultant mixture, 0.5 mL of chloroform was added, and the mixture was stirred for 1 minute with a vortex mixer, and then the stirred mixture was treated for 15 minutes by using an ultrasonic generator, and the treated mixture was fractionated into a chloroform layer and a water layer by centrifugation (10,000×g, for 5 minutes, at room temperature). Further, this fractionation process was repeated twice. After that, the chloroform layer was collected, and dried and solidified by distilling off the solvent with a vacuum centrifugal concentrator, and to the dried and solidified matter, 100 μL of 50% (v/v) methanol was added, and then the resultant mixture was centrifuged (10,000×g, for 5 minutes, at room temperature) to collect a supernatant liquid, and the collected supernatant liquid was taken as an enzyme-treated sample.
In 2 μL of the enzyme-treated sample prepared in the above (2), free curcumin was measured by the method described in “b.

[4] = system: human hepatocellular carcinoma cell lines (HepG2 cells); settings: cited from earlier work
[5] = system: colorectal cancer cells derived from adult human colon HCT116; test: Anti-tumor effect by intravenous administration of curcumin conjugates (tumor size, HCT116 transplanted mice); format: in vivo, BALB/cAnNcr j-nu/nu (homo) mice; settings: HCT116 mouse
Source text: 1×10^7 or 4×10^6 colorectal cancer cells derived from adult human […] colon HCT116 (ATCC No. CCL-247) were transplanted subcutaneously into the flank of each of the test animals by using a 27 G injection needle.
In this regard, in the control group, mice to which water for injection excluding curcumin monoglucuronide had been administered intravenously were used.
For the tumor size, after each lapse of 0, 4, 7, 11 and 14 days from the start of administration or after each lapse of 0, 4, 7, 11, 14, 18 and 21 days from the start of administration, the length, width and height of the tumor were measured by using a vernier caliper, and the tumor size was calculated by the following equation. Tumor size (mm^3)=length×width×height×0.5 (5) Concentration of Curcumin Conjugates and Free Curcumin in Tumor Tissue

[6] = in vivo; settings: mouse
Experimental: Intravenous administration of a single dose of curcumin monoglucuronide was performed to each of the mice at each dose of 125, 250, 500 and 1000 mg/kg, and the toxicity thereof was evaluated. In this regard, the number of mice in each group was set to be n=5.
As the test animals, 6-week old Slc:ICR mice (male, with a body weight of 27 to 31 g, Japan SLC, Inc.), which had been purchased and acclimated to the environment for around 6 days, was used.
Observation of the state of each of the mice was performed by recording the type, extent, expression time, recovery time, and death (death detection) time of all of the toxic signs observed macroscopically.
Observation was performed at a time immediately after administration, at a time after each lapse of 30 minutes, 1, 2, 4 and 6 hours from the start of administration, and once a day from the day following the date of administration (up to after the lapse of 14 days from the start of administration).
The body weight was measured by using an electronic balance (UW4200S, Shimadzu Corporation) immediately before administration, and after each lapse of 1, 3, 7, 10 and 14 days from the administration.
Blood biochemical test was performed by the following method. That is, mice were fasted for 4 hours or more after the end of the mouse observation period (after the lapse of 14 days from the start of administration), the fasted mice were subjected to laparotomy under anesthesia by intraperitoneal administration of pentobarbital sodium, and the blood was collected from the abdominal aorta (the amount of the blood was 0.6 mL or more). Next, the collected blood was anti-coagulated with heparin sodium, and then the anti-coagulated blood was centrifuged (4° C., 3000 rpm, for 10 minutes) to obtain the plasma, and transaminase (AST and ALT) contained in the plasma was measured.
After the end of the observation period (after the lapse of 14 days from the start of administration), autopsy was performed as follows: blood was collected from each of the mice under anesthesia with pentobarbital sodium; and then the mice were sacrificed by exsanguination by cutting the abdominal aorta and the caudal vena; each of the sacrificed mice was dissected according to a pathological technique; and the cranium, the intrathoracic organs, the intraperitoneal organs, and the tissues thereof were observed macroscopically.

[7] = system: A549; settings: A549, in vitro; cited from earlier work
[8] = Serum biochemical test (liver and biliary diseases set, 21 items) in tumor-bearing mice; format: in vivo, BALB/cAnNcr j-nu/nu (homo) mice; settings: 30 mg/kg i.v., 14 days from start of administration
[9] = system: Jurkat cells; settings: in vitro; cited from earlier work
[10] = system: KBM-5; settings: KBM-5, in vitro; cited from earlier work

COc1cc(/C=C/C(O)=C/C(=O)/C=C/c2ccc(O[C@@H]3O[C@H](C(=O)O)[C@@H](O)[C@H](O)[C@H]3O)c(OC)c2)ccc1O [curcumin monoglucuronide]
influence on the gene expression [1]: the action was extremely low | cell growth inhibitory effect [2]: there is no such an effect | concentration of the curcumin contained in the enzyme-treated sample [3]: 159.1 ± 6.1 ng/mL | cell growth inhibitory effect [4]: the effect was not found | tumor size ([5]; 30 mg/kg i.v., 0 day from start of administration): 142.9±45.5 mm^3 | tumor size ([5]; 30 mg/kg i.v., 4 days): 275.1±88.1 mm^3 | tumor size ([5]; 30 mg/kg i.v., 11 days): 489.4±147.8 mm^3 | tumor size ([5]; 30 mg/kg i.v., 14 days): 581.2±197.4 mm^3 | tumor size ([5]; 90 mg/kg i.v., 0 day from start of administration): 17.4±3.2 mm^3 | tumor size ([5]; 90 mg/kg i.v., 4 days): 23.6±8.4 mm^3 | tumor size ([5]; 90 mg/kg i.v., 7 days): 42.6±16.6 mm^3 | tumor size ([5]; 90 mg/kg i.v., 11 days): 77.5±28.9 mm^3 | tumor size ([5]; 90 mg/kg i.v., 14 days): 122.9±42.6 mm^3 | tumor size ([5]; 90 mg/kg i.v., 18 days): 204.4±76.2 mm^3 | tumor size ([5]; 90 mg/kg i.v., 21 days): 190.2±70.1 mm^3 | prone position and reduction of locomotor activity, number of mice ([6]; male, Slc:ICR): 5 | reduction of locomotor activity, number of mice ([6]; male, Slc:ICR): 5 | LD50 at 14 days ([6]; male, Slc:ICR, iv): 500 to 1000 mg/kg | autopsy findings [6]: no abnormality was found | state of mice by macroscopy [6]: no abnormality was found | cell growth inhibitory effect [7]: there is no such an effect | serum biochemical test values (liver and biliary diseases set, 21 items) [8]: no abnormality was found in the test values | cell growth inhibitory effect [9]: there is no such an effect | cell growth inhibitory effect [10]: there is no such an effect
